# Measurements reported in patent US12600732B2, “Bifunctional compounds for degrading BTK via ubiquitin proteosome pathway” (NURIX THERAPEUTICS, INC., priority 2019, dated 2026).
# What was measured:
# TMD8 cells = assay: Cell viability assay (CellTiter-Glo), TMD8 cells; conditions: for EC50: Homo sapiens, TMD8, 72 h; for EMAX (% viable cells): TMD8 cells, treatment time 72 h
# BTK = biological target: T1, BTK (Mus musculus, UniProt P35991); assay: In vivo degradation of BTK in mouse PD experiments with oral dosing
# T1 construct: from tissue; host or cells: mouse blood B cells / splenocytes (CD-1 or BALB/c)
# T1 sequence (P35991 whole entry): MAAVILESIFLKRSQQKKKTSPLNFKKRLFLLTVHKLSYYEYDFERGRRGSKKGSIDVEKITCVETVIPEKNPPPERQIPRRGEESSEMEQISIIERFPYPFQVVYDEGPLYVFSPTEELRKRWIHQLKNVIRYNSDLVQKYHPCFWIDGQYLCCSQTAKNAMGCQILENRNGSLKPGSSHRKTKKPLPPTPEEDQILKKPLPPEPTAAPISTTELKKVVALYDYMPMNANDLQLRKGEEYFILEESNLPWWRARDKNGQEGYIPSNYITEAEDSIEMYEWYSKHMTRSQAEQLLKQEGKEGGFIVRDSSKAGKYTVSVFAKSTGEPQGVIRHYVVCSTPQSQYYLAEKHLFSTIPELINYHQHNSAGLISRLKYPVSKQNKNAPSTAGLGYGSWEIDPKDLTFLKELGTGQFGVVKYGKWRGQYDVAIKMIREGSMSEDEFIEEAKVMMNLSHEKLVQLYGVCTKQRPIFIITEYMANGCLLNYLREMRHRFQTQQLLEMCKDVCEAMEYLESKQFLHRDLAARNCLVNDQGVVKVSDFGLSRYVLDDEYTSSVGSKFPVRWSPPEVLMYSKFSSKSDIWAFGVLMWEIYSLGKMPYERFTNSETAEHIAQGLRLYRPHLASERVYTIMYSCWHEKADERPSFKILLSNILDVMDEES
# Description: A method of determining the pharmacodynamic profile of BTK degraders was performed by dosing either CD-1 or BALB/c mice with CTM. The CTM was prepared in a suitable formulation and was administered via oral gavage (PO) at a suitable dose level and frequency as informed by prior pharmacokinetic and tolerability studies. Following administration of CTM, BTK levels in blood or splenocytes are measured using flow cytometry or HTRF. For assessment of BTK levels via flow cytometry, either whole blood or splenocytes were first treated with ACK RBC lysis buffer to facilitate lysing of red blood cells. Remaining cells were then stained with fluorophore-conjugated antibodies against CD45, TCR beta and CD45R (B220). Cell pellets were washed with 1×PBS, fixed, and permeabilized for twenty-four hours with Foxp3/Transcription Factor Fixation/Permeabilization Kit. Cells were then stained intracellularly with unconjugated BTK antibody and detected with a fluorophore-conjugated secondary antibody. Stained cells were run on an Attune N×T Acoustic Focusing Flow Cytometer (Thermo-Fisher A29004), and data was analyzed using FlowJo (v10.5.3) and GraphPad Prism (v7.00) software. Lymphocytes were gated for B cells defined as CD45+ TCR beta−B220+ and T cells as CD45+ TCR beta+B220−. The BTK geometric mean fluorescence intensity (MFI) was calculated for B and T cells. Percent BTK degradation for each compound-treated sample was calculated using the equation described below: % Degradation=100*(Treated sample B cell BTK MFI-treated sample T cell BTK MFI)/Vehicle B cell BTK MFI-Vehicle T cell BTK MFI)
# This example evaluates in vivo activity of BTK CTMs via a direct mouse PD measurement following oral dosing
# Screens were completed at 90 mg/kg for six hours, and then changed to lower doses/longer time points after seeing strong BTK degradation activity with an initial set of compounds. This assay was useful in selecting compounds for in vivo efficacy experiments.
# TMD8 C481S cells = assay: Cell viability assay (CellTiter-Glo), TMD8 C481S cells; conditions: for EC50: Homo sapiens, TMD8, 72 h; for EMAX (% viable cells): TMD8 C481S cells, treatment time 72 h
# [1] = PK data for BTK CTMs (in vivo plasma concentrations); conditions: Mouse Balb/c
# Text: The present example evaluates in vivo plasma concentrations of BTK CTMs to develop PK-PD-efficacy relationship and predict human exposure.
# primary human T cells [2] = assay: T cell activation assay, IL-2 secretion (ELISA); format: cell-based
# Description: (§1) This example evaluates whether CTMs with IMiD activity affect T cell activation. […] These assays were performed to assess whether BTK CTMs with and without IMiD activity affected activation of primary human T cells after stimulation of the T cell receptor with anti-CD3/ati-CD28 stimulation. T cell activation was measured by IL-2 secretion (ELISA assay) and upregulation of activation markers CD25 and CD69 on the surface of T cells (flow cytometry). Data are presented as the fold-change of response relative to baseline (stimulation with anti-CD3/anti-CD28 stimulation in the absence of compound).
# primary human T cells [3] = assay: T cell activation assay, CD25 and CD69 staining (flow cytometry); format: cell-based; conditions: fold-change of response relative to baseline
# Description: as §1
# [4] = oral dose 3 mg/kg, 6 h, blood, flow cytometry
# [5] = 1.4 nM, fold-change of response relative to baseline
# [6] = 37 nM, fold-change of response relative to baseline
# [7] = 333 nM, fold-change of response relative to baseline (stimulation without compound)
Structure (SMILES),EC50 (TMD8 cells),EMAX (% viable cells) (TMD8 cells),% BTK Remaining (BTK; [4]),EC50 (TMD8 C481S cells),EMAX (% viable cells) (TMD8 C481S cells),IL-2 Secretion Anti-CD3/Anti-CD28 Stimulation (primary human T cells [2]; [5]),IL-2 Secretion Anti-CD3/Anti-CD28 Stimulation (primary human T cells [2]; [6]),IL-2 Secretion Anti-CD3/Anti-CD28 Stimulation (primary human T cells [2]; [7]),CD25 Staining Anti-CD3/Anti-CD28 Stimulation (primary human T cells [3]; 1.4 nM),CD69 Staining Anti-CD3/Anti-CD28 Stimulation (primary human T cells [3]; 1.4 nM),CD25 Staining Anti-CD3/Anti-CD28 Stimulation (primary human T cells [3]; 37 nM),CD69 Staining Anti-CD3/Anti-CD28 Stimulation (primary human T cells [3]; 37 nM),CD25 Staining Anti-CD3/Anti-CD28 Stimulation (primary human T cells [3]; 333 nM),CD69 Staining Anti-CD3/Anti-CD28 Stimulation (primary human T cells [3]; 333 nM),also measured
CN1CCN([C@@H]2CCCN(c3cnc(C(N)=O)c(Nc4ccc(C5CCN(C6CN(Cc7ccc8c(c7)CN(C7CCC(=O)NC7=O)C8=O)C6)CC5)cc4)n3)C2)C1=O (stereo partly drawn) [Compound 86],0.67 nM,27%,56%,4.78 nM,30%,–,–,–,–,–,–,–,–,–,"% BTK Remaining (BTK; oral dose 3 mg/kg, 24 h, blood, flow cytometry): 70%; AUC ([1]; 1 mg/kg IV): 0.5 µM·h; clearance ([1]; 1 mg/kg IV): 35 mL/min/kg; Vd ([1]; 1 mg/kg IV, read-out: Volume of Distribution): 7.7 L/kg; AUC ([1]; 30 mg/kg PO): 0.34 µM·h; bioavailability ([1]; 30 mg/kg PO): 2%"
CN1CCN([C@H]2CCCN(c3cnc(C(N)=O)c(Nc4ccc5c(c4)CCN(CC4CN(c6ccc7c(c6)C(=O)N(C6CCC(=O)NC6=O)C7=O)C4)C5)n3)C2)C1=O (stereo partly drawn) [Compound 92],–,–,–,–,–,1.53,2.19,1.63,1.14,1.09,1.21,1.29,1.06,1.35,–
CN1CCN([C@@H]2CCCN(c3cnc(C(N)=O)c(Nc4ccc(C5CCN(CC6CCN(c7ccc8c(c7)C(=O)N(C7CCC(=O)NC7=O)C8=O)CC6)CC5)cc4)n3)C2)C1=O (stereo partly drawn) [Compound 51],0.32 nM,20%,–,1.95 nM,49%,1.19,1.99,2.12,0.86,0.91,0.62,0.62,0.38,0.39,"% BTK Remaining (BTK; oral dose 90 mg/kg, 6 h, splenocytes, HTRF): 2%"
CN1CCN([C@@H]2CCCN(c3cnc(C(N)=O)c(Nc4ccc(C5CCN(C[C@H]6CC[C@H](Nc7cccc8c7C(=O)N(C7CCC(=O)NC7=O)C8=O)CC6)CC5)cc4)n3)C2)C1=O (stereo partly drawn) [Compound 154],–,–,–,–,–,1.77,3.38,3.45,1.23,1.18,1.36,1.29,1.13,1.16,–
CN1CCN([C@H]2CCCN(c3cnc(C(N)=O)c(Nc4cnn(C5CCN(CC6CN(c7ccc8c(c7)C(=O)N(C7CCC(=O)NC7=O)C8=O)C6)CC5)c4)n3)C2)C1=O (stereo partly drawn) [Compound 78],9.04 nM,41%,74%,7.19 nM,37%,1.00,1.17,1.20,0.99,1.00,0.73,0.66,0.44,0.43,–
CN1CCN([C@@H]2CCCN(c3cnc(C(N)=O)c(Nc4ccc(OCCCNc5ccc6c(c5)C(=O)N(C5CCC(=O)NC5=O)C6=O)cc4)n3)C2)C1=O (stereo partly drawn) [Compound 64],–,–,–,–,–,1.28,1.80,1.48,1.17,1.14,1.04,1.14,0.34,0.64,–
